The subject of the experiment is Artemia salina. The experiment in a line: Cytotoxicity against brine shrimp. In kind it is functional, organism-based.
As for `CC(=O)NNC1=NN(C(C)=O)C2(O1)C(=O)N(c1ccc(Br)cc1Br)N=C2C` (centres undefined), the IC50 turned out to be 20 ppm.
Next, `CC1=NN(c2ccc(Br)cc2Br)C(=O)/C1=N\NC(N)=S`: 36 ppm; `CC(=O)NC1=NN(C(C)=O)C2(S1)C(=O)N(c1ccc(Br)cc1Br)N=C2C` (centres undefined): 19.5 ppm.
As for `CC1=NN(c2ccc(Br)cc2Br)C(=O)C1=O`, the figure is 36 ppm.

The values are drawn from ChEMBL document CHEMBL3085757, “Pyrazole scaffold: a remarkable tool in the development of anticancer agents” (Eur J Med Chem, 2013).
